According to PubChem BioAssay AID2060912 (Molecular Pharmacology Branch, DTP, NCI, 2025):

System: HUVEC/MSC spheroids viability
Test: Human HUVEC/MSC cell line growth inhibition [KRAS2];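 for viability, T/C: percent of DMSO vehicle control luminescence so 100% = untreated viability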
Conditions: for IC50: curve of first compound; for viability, T/C: stronger effect = lower value
Method in brief: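 Concentration ranges start near each agent's clinical Cmax, or at 10 microM if none is established, and fall by half-log increments. These ranges are tested as single agents and combinations on endothelial/mesenchymal stem cell spheroids lacking tumour cells.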

[1] = second compound 0.00949 µM, first compound 0.0316 µM
[2] = second compound 0.00949 µM, first compound 0.1 µM
[3] = second compound 0.00949 µM, first compound 0.316 µM
[4] = second compound 0.00949 µM, first compound 1 µM
[5] = second compound 0.00949 µM, first compound 3.16 µM
[6] = second compound 0.00949 µM, first compound 10 µM
[7] = second compound 0.03 µM, first compound 0.0316 µM
[8] = second compound 0.03 µM, first compound 0.1 µM
[9] = second compound 0.03 µM, first compound 0.316 µM
[10] = second compound 0.03 µM, first compound 1 µM
[11] = second compound 0.03 µM, first compound 3.16 µM
[12] = second compound 0.03 µM, first compound 10 µM
[13] = second compound 0.0949 µM, first compound 0.0316 µM
[14] = second compound 0.0949 µM, first compound 0.1 µM
[15] = second compound 0.0949 µM, first compound 0.316 µM
[16] = second compound 0.0949 µM, first compound 1 µM
[17] = second compound 0.0949 µM, first compound 3.16 µM
[18] = second compound 0.0949 µM, first compound 10 µM
[19] = second compound 0.3 µM, first compound 0.0316 µM
[20] = second compound 0.3 µM, first compound 0.1 µM
[21] = second compound 0.3 µM, first compound 0.316 µM
[22] = second compound 0.3 µM, first compound 1 µM
[23] = second compound 0.3 µM, first compound 3.16 µM
[24] = second compound 0.3 µM, first compound 10 µM
[25] = second compound 0.949 µM, first compound 0.0316 µM
[26] = second compound 0.949 µM, first compound 0.1 µM
[27] = second compound 0.949 µM, first compound 0.316 µM
[28] = second compound 0.949 µM, first compound 1 µM
[29] = second compound 0.949 µM, first compound 3.16 µM
[30] = second compound 0.949 µM, first compound 10 µM
[31] = second compound 3 µM, first compound 0.0316 µM
[32] = second compound 3 µM, first compound 0.1 µM
[33] = second compound 3 µM, first compound 0.316 µM
[34] = second compound 3 µM, first compound 1 µM
[35] = second compound 3 µM, first compound 3.16 µM
[36] = second compound 3 µM, first compound 10 µM

For `CC1COCCN1c1cc(-c2ccnn2C)c2ccnc(-c3ccn[nH]3)c2n1` (stereo not drawn) + C=CC(=O)N1CCN(c2nc(OCC3CCCN3C)nc3c2CCN(c2cccc4cccc(C)c24)C3)CC1CC#N, the IC50 (second compound 0.00949 µM) was 1210 nM, the IC50 (second compound 0.03 µM) was 916 nM and the IC50 (second compound 0.0949 µM) was 635 nM. The IC50 (second compound 0.3 µM) was 661 nM, the IC50 (second compound 0.949 µM) was 362 nM and the IC50 (second compound 3 µM) was greater than 3000 nM. It also gave a viability, T/C (second compound 0.00949 µM, first compound 0.00949 µM) of 79.3%, a viability, T/C (second compound 0.00949 µM, first compound 0.03 µM) of 76.5% and a viability, T/C (second compound 0.00949 µM, first compound 0.0949 µM) of 77%. The viability, T/C (second compound 0.00949 µM, first compound 0.3 µM) was 77%, the viability, T/C (second compound 0.00949 µM, first compound 0.949 µM) was 51.9% and the viability, T/C (second compound 0.00949 µM, first compound 3 µM) was 42.8%. It also gave a viability, T/C (second compound 0.03 µM, first compound 0.00949 µM) of 87.7%, a viability, T/C (second compound 0.03 µM, first compound 0.03 µM) of 90.9% and a viability, T/C (second compound 0.03 µM, first compound 0.0949 µM) of 77.6%. The viability, T/C (second compound 0.03 µM, first compound 0.3 µM) was 66.6%, the viability, T/C (second compound 0.03 µM, first compound 0.949 µM) was 49.7% and the viability, T/C (second compound 0.03 µM, first compound 3 µM) was 37.9%. It also gave a viability, T/C (second compound 0.0949 µM, first compound 0.00949 µM) of 73.5%, a viability, T/C (second compound 0.0949 µM, first compound 0.03 µM) of 85.3% and a viability, T/C (second compound 0.0949 µM, first compound 0.0949 µM) of 70.8%. For the same molecule, the viability, T/C (second compound 0.0949 µM, first compound 0.3 µM) was 69.1%, the viability, T/C (second compound 0.0949 µM, first compound 0.949 µM) was 39.5% and the viability, T/C (second compound 0.0949 µM, first compound 3 µM) was 37.8%. It also gave a viability, T/C (second compound 0.3 µM, first compound 0.00949 µM) of 66.8%, a viability, T/C (second compound 0.3 µM, first compound 0.03 µM) of 71.4% and a viability, T/C (second compound 0.3 µM, first compound 0.0949 µM) of 72%. For the same molecule, the viability, T/C (second compound 0.3 µM, first compound 0.3 µM) was 62.6%, the viability, T/C (second compound 0.3 µM, first compound 0.949 µM) was 44.2% and the viability, T/C (second compound 0.3 µM, first compound 3 µM) was 34.8%. The viability, T/C (second compound 0.949 µM, first compound 0.00949 µM) was 67.7%, the viability, T/C (second compound 0.949 µM, first compound 0.03 µM) was 65% and the viability, T/C (second compound 0.949 µM, first compound 0.0949 µM) was 68%. The viability, T/C (second compound 0.949 µM, first compound 0.3 µM) was 51.5%, the viability, T/C (second compound 0.949 µM, first compound 0.949 µM) was 45% and the viability, T/C (second compound 0.949 µM, first compound 3 µM) was 40.1%. It also gave a viability, T/C (second compound 3 µM, first compound 0.00949 µM) of 81.6%, a viability, T/C (second compound 3 µM, first compound 0.03 µM) of 78.6% and a viability, T/C (second compound 3 µM, first compound 0.0949 µM) of 86%. For the same molecule, the viability, T/C (second compound 3 µM, first compound 0.3 µM) was 81.2%, the viability, T/C (second compound 3 µM, first compound 0.949 µM) was 54.5% and the viability, T/C (second compound 3 µM, first compound 3 µM) was 50.4%.

`CC1OCC2(CCN(c3cnc(Sc4ccnc(N)c4Cl)c(N)n3)CC2)C1N` (stereo not drawn) + C=CC(=O)N1CCN(c2nc(OCC3CCCN3C)nc3c2CCN(c2cccc4cccc(C)c24)C3)CC1CC#N was tested, and the IC50 (second compound 0.00949 µM) was greater than 10000 nM, the IC50 (second compound 0.03 µM) was greater than 10000 nM and the IC50 (second compound 0.0949 µM) was greater than 10000 nM. For the same molecule, the IC50 (second compound 0.3 µM) was greater than 10000 nM, the IC50 (second compound 0.949 µM) was 5360 nM and the IC50 (second compound 3 µM) was 387 nM. The viability, T/C [1] was 112%, the viability, T/C [2] was 102% and the viability, T/C [3] was 99.9%. For the same molecule, the viability, T/C [4] was 82.3%, the viability, T/C [5] was 71.1% and the viability, T/C [6] was 73.6%. For the same molecule, the viability, T/C [7] was 109%, the viability, T/C [8] was 116% and the viability, T/C [9] was 89.8%. The viability, T/C [10] was 87.3%, the viability, T/C [11] was 66% and the viability, T/C [12] was 67.9%. For the same molecule, the viability, T/C [13] was 98.5%, the viability, T/C [14] was 96.4% and the viability, T/C [15] was 90%. For the same molecule, the viability, T/C [16] was 79.5%, the viability, T/C [17] was 74.1% and the viability, T/C [18] was 66.5%. It also gave a viability, T/C [19] of 86.7%, a viability, T/C [20] of 90.7% and a viability, T/C [21] of 89.4%. For the same molecule, the viability, T/C [22] was 69.1%, the viability, T/C [23] was 72.9% and the viability, T/C [24] was 56.1%. It also gave a viability, T/C [25] of 63%, a viability, T/C [26] of 79.5% and a viability, T/C [27] of 83.2%. For the same molecule, the viability, T/C [28] was 71.8%, the viability, T/C [29] was 60.4% and the viability, T/C [30] was 37.9%. It also gave a viability, T/C [31] of 55.4%, a viability, T/C [32] of 67.6% and a viability, T/C [33] of 48%. It also gave a viability, T/C [34] of 35.7%, a viability, T/C [35] of 4.99% and a viability, T/C [36] of 0.43%.

With `CCNC(=O)CC1N=C(c2ccc(Cl)cc2)c2cc(OC)ccc2-n2c(C)nnc21` (stereo not drawn) + C=CC(=O)N1CCN(c2nc(OCC3CCCN3C)nc3c2CCN(c2cccc4cccc(C)c24)C3)CC1CC#N the IC50 (second compound 0.00949 µM) was greater than 10000 nM, the IC50 (second compound 0.03 µM) was greater than 10000 nM and the IC50 (second compound 0.0949 µM) was greater than 10000 nM. For the same molecule, the IC50 (second compound 0.3 µM) was greater than 10000 nM, the IC50 (second compound 0.949 µM) was greater than 10000 nM and the IC50 (second compound 3 µM) was greater than 10000 nM. It also gave a viability, T/C [1] of 68.5%, a viability, T/C [2] of 79.5% and a viability, T/C [3] of 69.5%. It also gave a viability, T/C [4] of 115%, a viability, T/C [5] of 100% and a viability, T/C [6] of 90.3%. For the same molecule, the viability, T/C [7] was 82.6%, the viability, T/C [8] was 76.9% and the viability, T/C [9] was 79.1%. The viability, T/C [10] was 108%, the viability, T/C [11] was 119% and the viability, T/C [12] was 110%. The viability, T/C [13] was 73.3%, the viability, T/C [14] was 63.3% and the viability, T/C [15] was 78.8%. For the same molecule, the viability, T/C [16] was 115%, the viability, T/C [17] was 97.8% and the viability, T/C [18] was 111%. It also gave a viability, T/C [19] of 72.8%, a viability, T/C [20] of 64.3% and a viability, T/C [21] of 60.5%. The viability, T/C [22] was 102%, the viability, T/C [23] was 91.9% and the viability, T/C [24] was 104%. It also gave a viability, T/C [25] of 53.3%, a viability, T/C [26] of 63.1% and a viability, T/C [27] of 82.7%. For the same molecule, the viability, T/C [28] was 74%, the viability, T/C [29] was 83.7% and the viability, T/C [30] was 86.1%. For the same molecule, the viability, T/C [31] was 75.5%, the viability, T/C [32] was 89.9% and the viability, T/C [33] was 82.7%. For the same molecule, the viability, T/C [34] was 67.1%, the viability, T/C [35] was 71.2% and the viability, T/C [36] was 54.3%.

`Cn1nccc1Nc1nccc(-c2cc3c(s2)C(C)(C)N(CCN2CCOCC2)C3=O)n1` + C=CC(=O)N1CCN(c2nc(OCC3CCCN3C)nc3c2CCN(c2cccc4cccc(C)c24)C3)CC1CC#N showed an IC50 (second compound 0.00949 µM) of 2880 nM, an IC50 (second compound 0.03 µM) of 3050 nM and an IC50 (second compound 0.0949 µM) of 2890 nM. The IC50 (second compound 0.3 µM) was 3020 nM, the IC50 (second compound 0.949 µM) was 2420 nM and the IC50 (second compound 3 µM) was 1130 nM. It also gave a viability, T/C [1] of 81.1%, a viability, T/C [2] of 103% and a viability, T/C [3] of 124%. For the same molecule, the viability, T/C [4] was 109%, the viability, T/C [5] was 45.1% and the viability, T/C [6] was 6.48%. For the same molecule, the viability, T/C [7] was 85.3%, the viability, T/C [8] was 103% and the viability, T/C [9] was 111%. It also gave a viability, T/C [10] of 96.2%, a viability, T/C [11] of 48.6% and a viability, T/C [12] of 5.51%. It also gave a viability, T/C [13] of 93.1%, a viability, T/C [14] of 119% and a viability, T/C [15] of 106%. For the same molecule, the viability, T/C [16] was 86.1%, the viability, T/C [17] was 47.6% and the viability, T/C [18] was 9.65%. The viability, T/C [19] was 77.7%, the viability, T/C [20] was 85.8% and the viability, T/C [21] was 99.6%. The viability, T/C [22] was 91%, the viability, T/C [23] was 48.5% and the viability, T/C [24] was 3.83%. For the same molecule, the viability, T/C [25] was 76.7%, the viability, T/C [26] was 91.2% and the viability, T/C [27] was 93.9%. It also gave a viability, T/C [28] of 92.1%, a viability, T/C [29] of 38.4% and a viability, T/C [30] of 1.39%. For the same molecule, the viability, T/C [31] was 90.6%, the viability, T/C [32] was 107% and the viability, T/C [33] was 93.8%. The viability, T/C [34] was 55.7%, the viability, T/C [35] was 2.04% and the viability, T/C [36] was 0.32%.
